Data taken from patent publication US10183914B2 (BAYER CROPSCIENCE AKTIENGESELLSCHAFT, priority 2014, dated 2019).

Legend:
[1] = test system: Matricaria inodora; experiment: Pre-emergence herbicidal effect; type: in vivo; conditions: 3 weeks
Description: (§1) Seeds of monocotyledonous and dicotyledonous weed plants and crop plants are laid out in wood-fiber pots in sandy loam and covered with soil. The compounds of the invention, formulated in the form of wettable powders (WP) or as emulsion concentrates (EC), are then applied to the surface of the covering soil as aqueous suspension or emulsion at a water application rate equating to 600 to 800 L/ha with addition of 0.2% wetting agent.
(§2) After the treatment, the pots are placed in a greenhouse and kept under good growth conditions for the trial plants. The damage to the trial plants is scored visually after a trial duration of 3 weeks by comparison with untreated controls (herbicidal activity in percent (%): 100% efficacy=the plants have died, 0% efficacy=like control plants).

[2] = test system: Polygonum convolvulus; experiment: Pre-emergence herbicidal effect; type: in vivo; conditions: 3 weeks
Description: as §1, §2

[3] = test system: Setaria viridis; experiment: Pre-emergence herbicidal effect; type: in vivo; conditions: 320 g/ha, 3 weeks
Description: as §1, §2

[4] = test system: Stellaria media; experiment: Pre-emergence herbicidal effect; type: in vivo; conditions: 3 weeks
Description: as §1, §2

[5] = test system: Echinochloa crus-galli; experiment: Pre-emergence herbicidal effect; type: in vivo; conditions: 3 weeks
Description: as §1, §2

[6] = test system: Amaranthus retroflexus; experiment: Pre-emergence herbicidal effect; type: in vivo; conditions: 3 weeks
Description: as §1, §2

[7] = test system: Veronica persica; experiment: Pre-emergence herbicidal effect; type: in vivo; conditions: 3 weeks
Description: as §1, §2

[8] = test system: Oryza sativa; experiment: Pre-emergence herbicidal effect and crop plant compatibility; type: in vivo; conditions: 3 weeks
Description: as §1, §2

[9] = test system: Zea mays; experiment: as above; type: in vivo; conditions: 3 weeks
Description: as §1, §2

[10] = test system: Triticum aestivum (spring); experiment: as above; type: in vivo; conditions: 3 weeks
Description: as §1, §2

[11] = logp (HCOOH), physicochemical characterization
[12] = test system: Alopecurus myosuroides; experiment: Pre-emergence herbicidal effect; type: in vivo; conditions: 3 weeks
Description: as §1, §2

[13] = test system: Viola tricolor; experiment: Pre-emergence herbicidal effect; type: in vivo; conditions: 3 weeks
Description: as §1, §2

[14] = test system: Avena fatua; experiment: Pre-emergence herbicidal effect; type: in vivo; conditions: 1280 g/ha, 3 weeks
Description: as §1, §2

[15] = test system: Oryza sativa; experiment: Post-emergence herbicidal effect and crop plant compatibility; type: in vivo; conditions: visual scoring after about 3 weeks
Method: (§3) Seeds of monocotyledonous and dicotyledonous weed and crop plants are laid out in sandy loam in wood-fiber pots, covered with soil and cultivated in a greenhouse under good growth conditions. 2 to 3 weeks after sowing, the test plants are treated at the one-leaf stage. The compounds of the invention, formulated in the form of wettable powders (WP) or as emulsion concentrates (EC), are then sprayed onto the green parts of the plants as aqueous suspension or emulsion at a water application rate equating to 600 to 800 L/ha with addition of 0.2% wetting agent. After the trial plants have been left to stand in a greenhouse under optimal growth conditions for about 3 weeks, the efficacy of the formulations is scored visually in comparison to untreated controls (herbicidal action in percent (%): 100% efficacy=the plants have died, 0% efficacy=like control plants).

[16] = test system: Zea mays; experiment: as above; type: in vivo; conditions: visual scoring after about 3 weeks
Method: as §3

[17] = test system: Triticum aestivum (spring); experiment: as above; type: in vivo; conditions: visual scoring after about 3 weeks
Method: as §3

Row | SMILES | MATIN herbicidal activity in percent ([1]; 80 g/ha) [%] | MATIN herbicidal activity in percent ([1]; 320 g/ha) [%] | SETVI herbicidal activity in percent [3] [%] | STEME herbicidal activity in percent ([4]; 320 g/ha) [%] | ECHCG herbicidal activity in percent ([5]; 320 g/ha) [%] | AMARE herbicidal activity in percent ([6]; 80 g/ha) [%] | AMARE herbicidal activity in percent ([6]; 320 g/ha) [%] | VERPE herbicidal activity in percent ([7]; 80 g/ha) [%] | VERPE herbicidal activity in percent ([7]; 320 g/ha) [%] | ORYSA herbicidal activity in percent ([8]; 80 g/ha) [%] | ZEAMX herbicidal activity in percent ([9]; 80 g/ha) [%] | TRZAS herbicidal activity in percent ([10]; 80 g/ha) [%] | TRZAS herbicidal activity in percent ([10]; 320 g/ha) [%] | VIOTR herbicidal activity in percent ([13]; 320 g/ha) [%] | ZEAMX herbicidal activity in percent ([9]; 320 g/ha) [%] | other results
1 | CC(=O)c1cnc(N[C@@H]2CCCc3ccccc32)nc1 [1.3, 1-{2-[(1R)-1,2,3,4-tetrahydronaphthalen-1-ylamino]pyrimidin-5-yl}ethanone] | 90 | 100 | 80 | 90 | 100 | 100 | 100 | 100 | 100 | 20 | 20 | 20 | 20 |  |  | POLCO herbicidal activity in percent ([2]; 80 g/ha): 80%; POLCO herbicidal activity in percent ([2]; 320 g/ha): 100%; ECHCG herbicidal activity in percent ([5]; 80 g/ha): 80%; chromatographic logP ([11]; HCOOH (formic acid)): 2.51
2 | CC(=O)c1cnc(NC2CCOc3c(C)cccc32)nc1 (racemic) [1.8] |  | 100 | 80 |  | 90 | 100 | 100 |  | 100 |  | 0 | 0 | 0 | 100 | 0 | ALOMY herbicidal activity in percent ([12]; 80 g/ha): 0%; ALOMY herbicidal activity in percent ([12]; 320 g/ha): 0%
3 | CC(=O)c1cnc(N[C@@H]2CCc3c(F)cccc32)nc1 [1.90] |  | 100 |  | 80 |  |  | 90 |  | 100 |  |  |  | 0 |  | 20 | MATIN herbicidal activity in percent ([1]; 1280 g/ha): 100%; POLCO herbicidal activity in percent ([2]; 1280 g/ha): 90%; STEME herbicidal activity in percent ([4]; 1280 g/ha): 100%; ECHCG herbicidal activity in percent ([5]; 1280 g/ha): 80%; VIOTR herbicidal activity in percent ([13]; 1280 g/ha): 100%; AMARE herbicidal activity in percent ([6]; 1280 g/ha): 100%; VERPE herbicidal activity in percent ([7]; 1280 g/ha): 100%; AVEFA herbicidal activity in percent [14]: 100%; ORYSA herbicidal activity in percent ([8]; 320 g/ha): 20%; ORYSA herbicidal activity in percent ([8]; 1280 g/ha): 20%; ZEAMX herbicidal activity in percent ([9]; 1280 g/ha): 20%; TRZAS herbicidal activity in percent ([10]; 1280 g/ha): 0%; logp (HCOOH) [11]: solid; m.p.: 111.5° C.; logp (HCOOH): 2.43; 1H-NMR (CDCl3, 400 MHZ, δ in ppm:
4 | CC(=O)c1cnc(N[C@@H]2CCCc3cc(F)ccc32)nc1C [1.88] | 100 | 100 |  | 100 |  | 80 | 100 | 100 | 100 | 0 | 0 | 0 | 0 | 90 | 0 | post-emergence efficacy ORYSA ([15]; 80 g/ha): 0%; post-emergence efficacy ORYSA ([15]; 320 g/ha): 0%; post-emergence efficacy ZEAMX ([16]; 80 g/ha): 0%; post-emergence efficacy ZEAMX ([16]; 320 g/ha): 10%; post-emergence efficacy TRZAS ([17]; 80 g/ha): 0%; post-emergence efficacy TRZAS ([17]; 320 g/ha): 20%
